Here are results for 23 compounds from patent publication US20220089592A1, “IMIDAZO[1,2-A]PYRIDINYL DERIVATIVES AS IRAK4 INHIBITORS” (priority 2019, published 2022).

Where a name gives a salt, the structure may show the parent alone.

The assay addresses T1, IRAK4 (Homo sapiens, UniProt Q9NWZ3).
T1 sequence (Q9NWZ3 1-460): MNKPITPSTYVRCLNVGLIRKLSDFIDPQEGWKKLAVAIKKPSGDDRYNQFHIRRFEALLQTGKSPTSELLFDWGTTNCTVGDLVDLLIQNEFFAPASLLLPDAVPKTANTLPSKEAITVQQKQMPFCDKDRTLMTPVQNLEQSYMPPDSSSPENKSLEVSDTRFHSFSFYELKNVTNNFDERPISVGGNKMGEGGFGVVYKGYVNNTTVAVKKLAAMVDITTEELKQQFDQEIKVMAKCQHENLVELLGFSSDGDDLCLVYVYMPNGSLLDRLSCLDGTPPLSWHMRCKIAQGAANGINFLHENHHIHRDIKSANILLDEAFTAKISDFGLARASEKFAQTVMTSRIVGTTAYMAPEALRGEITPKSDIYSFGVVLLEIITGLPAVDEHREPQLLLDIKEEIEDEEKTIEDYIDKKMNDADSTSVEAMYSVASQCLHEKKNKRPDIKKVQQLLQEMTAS
Put plainly: 2-hour 1 mM ATP IRAK4 Biochemical assay (as above, but with 100 pM IRAK4 and 1 mM ATP). The conditions noted are these: IRAK4 MSD BIOCHEMICAL (1 mM ATP) IC50 (μM), 100 pM IRAK4, 2 hours. A digest of the protocol:
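MSD electrochemiluminescence read-out: biotinylated peptide product bound to streptavidin plates, probed with anti-P-Thr rabbit antibody and Sulfo-Tag goat anti-rabbit. Kinase reaction used 1 mM ATP and 100 pM IRAK4 over 2 hours before EDTA quench.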
Take `CC12CC(c3cn4cc(NC(=O)c5cccc(C(F)F)n5)c(C(F)F)cc4n3)(CO1)C2` [Example 393, 6-(difluoromethyl)-N-(7-(difluoromethyl)-2-(1-methyl-2-oxabicyclo[2.1.1]hexan-4-yl)imidazo[1,2-a]pyridin-6-yl)picolinamide 2,2,2-trifluoroacetate]: the IC50 is 0.003 µM.

As for `COc1nc(NC(=O)c2cccc(C(F)F)n2)cn2cc(C3COCCO3)nc12` (centres unmarked) [Example 278, N-(2-(1,4-dioxan-2-yl)-8-methoxyimidazo[1,2-a]pyrazin-6-yl)-6-(difluoromethyl)picolinamide], the half-maximal inhibitory concentration (IC50) was determined as 0.023 µM.

Turning to `O=C(Nc1cc(OC(F)F)c2nc(C3CCOCC3)cn2c1)c1cccc(C(F)F)n1` [Example 307, N-(8-(difluoromethoxy)-2-(tetrahydro-2H-pyran-4-yl)imidazo[1,2-a]pyridin-6-yl)-6-(difluoromethyl)picolinamide], the IC50 turned out to be 0.015 µM.

`COCc1cc2nc(C3CCOCC3)cn2cc1NC(=O)c1cccc(C)n1` [Example 371, N-(7-(methoxymethyl)-2-(tetrahydro-2H-pyran-4-yl)imidazo[1,2-a]pyridin-6-yl)-6-methylpicolinamide 2,2,2-trifluoroacetate] displayed an IC50 of 0.035 µM.

In turn, `COc1nc(NC(=O)c2coc(C(F)F)n2)cn2cc(C3CCOCC3)nc12` [Example 333, 2-(difluoromethyl)-N-(8-methoxy-2-(tetrahydro-2H-pyran-4-yl)imidazo[1,2-a]pyrazin-6-yl)oxazole-4-carboxamide] yielded an IC50 of 0.044 µM.

In turn, `COc1nc(NC(=O)c2cccc3c2OCC3)cn2cc(C34CCC(C)(C3)OC4)nc12` (centres unmarked) [Example 469, N-(8-methoxy-2-(1-methyl-2-oxabicyclo[2.2.1]heptan-4-yl)imidazo[1,2-a]pyrazin-6-yl)-2,3-dihydrobenzofuran-7-carboxamide 2,2,2-trifluoroacetate] gave a concentration for half-maximal inhibition (IC50) of 0.008 µM.

On to `CC(C)Oc1cc2nc(-c3cccc(F)c3)cn2cc1NC(=O)c1cccc(C(F)F)n1` [Example 538, 6-(difluoromethyl)-N-(2-(3-fluorophenyl)-7-isopropoxyimidazo[1,2-a]pyridin-6-yl)picolinamide 2,2,2-trifluoroacetate], for which the midpoint of inhibition, the IC50, lay at 0.003 µM.

Turning to `CC(C)Oc1nc2nc(C3C4COCC43)cn2cc1NC(=O)c1ccn(C)n1` (centres unmarked) [Example 500, N-(2-(3-oxabicyclo[3.1.0]hexan-6-yl)-7-isopropoxyimidazo[1,2-a]pyrimidin-6-yl)-1-methyl-1H-pyrazole-3-carboxamide Hydrochloride], the half-inhibitory concentration (IC50) came out at 0.005 µM.

`COc1ccccc1C(=O)Nc1cn2cc(Cl)nc2cc1OC(C)C` [Example 400, N-(2-chloro-7-isopropoxyimidazo[1,2-a]pyridin-6-yl)-2-methoxybenzamide 2,2,2-trifluoroacetate] registered a half-maximal inhibitory concentration (IC50) of 0.054 µM.

As to `CC(C)Oc1nc2nc(C34CC(C3)C4)cn2cc1NC(=O)c1cccc(C(F)F)n1` [Example 573, N-(2-(bicyclo[1.1.1]pentan-1-yl)-7-isopropoxyimidazo[1,2-a]pyrimidin-6-yl)-6-(difluoromethyl)picolinamide 2,2,2-trifluoroacetate], the IC50 amounted to 0.003 µM.

In turn, `COc1c(F)cccc1C(=O)Nc1cn2cc(Cl)nc2cc1OC(C)C` [Example 402, N-(2-chloro-7-isopropoxyimidazo[1,2-a]pyridin-6-yl)-3-fluoro-2-methoxybenzamide 2,2,2-trifluoroacetate] had a half-maximal inhibitory concentration (IC50) of 0.157 µM.

For the compound `COc1cc2nc(C34COC(C)(C3)C4)cn2cc1NC(=O)c1cccc(C(F)F)n1` [Example 515, 6-(difluoromethyl)-N-(7-methoxy-2-(1-methyl-2-oxabicyclo[2.1.1]hexan-4-yl)imidazo[1,2-a]pyridin-6-yl)picolinamide 2,2,2-trifluoroacetate], the half-maximal inhibitory concentration (IC50) was 0.001 µM.

As for `O=C(Nc1cn2cc(C3CCOCC3)nc2cc1OCC1CC1(F)F)c1cccc(C(F)F)n1` (centres unmarked) [Example 196, N-(7-((2,2-difluorocyclopropyl)methoxy)-2-(tetrahydro-2H-pyran-4-yl)imidazo[1,2-a]pyridin-6-yl)-6-(difluoromethyl)picolinamide], the 50% inhibitory concentration (IC50) amounted to 0.001 µM.

The compound `CCOc1cc2nc(CC3CCOC3)cn2cc1NC(=O)c1cccc(C(F)F)n1` (centres unmarked) [Example 14, 6-(difluoromethyl)-N-(7-ethoxy-2-((tetrahydrofuran-3-yl)methyl)imidazo[1,2-a]pyridin-6-yl)picolinamide] showed an IC50 of 0.001 µM.

Compound `CC(C)Oc1c(NC(=O)c2cccc3ncnn23)cn2cc(C34COC(C)(C3)C4)nc2c1F` [Example 434, N-(8-fluoro-7-isopropoxy-2-(1-methyl-2-oxabicyclo[2.1.1]hexan-4-yl)imidazo[1,2-a]pyridin-6-yl)-[1,2,4]triazolo[1,5-a]pyridine-5-carboxamide] returned an IC50 of 0.004 µM.

`CC(C)Oc1cc2nc(C34CC(F)(C3)C4)cn2cc1NC(=O)c1cccc(C(F)(F)F)n1` [Example 539, N-(2-(3-fluorobicyclo[1.1.1]pentan-1-yl)-7-isopropoxyimidazo[1,2-a]pyridin-6-yl)-6-(trifluoromethyl)picolinamide 2,2,2-trifluoroacetate] gave a half-maximal inhibitory concentration (IC50) of 0.002 µM.

`COC(C)c1cc2nc(C3CCOCC3)cn2cc1NC(=O)c1cccc(C(F)F)n1` (centres unmarked) [Example 313, 6-(difluoromethyl)-N-(7-(1-methoxyethyl)-2-(tetrahydro-2H-pyran-4-yl)imidazo[1,2-a]pyridin-6-yl)picolinamide] returned a concentration for half-maximal inhibition (IC50) of 0.067 µM.

In the case of `COc1nc(NC(=O)c2cccc(C(F)F)n2)cn2cc([C@@]34CC[C@@](C)(C3)OC4)nc12` (single isomer, unassigned) [Example 277, 6-(Difluoromethyl)-N-(8-methoxy-2-((1R*,4S*)-1-methyl-2-oxabicyclo[2.2.1]heptan-4-yl)imidazo[1,2-a]pyrazin-6-yl)picolinamide], the IC50 amounted to 0.007 µM.

`COc1cc(F)ccc1C(=O)Nc1cn2cc(C34COC(C)(C3)C4)nc2c(OC(C)C)n1` [Example 479, 4-fluoro-N-(8-isopropoxy-2-(1-methyl-2-oxabicyclo[2.1.1]hexan-4-yl)imidazo[1,2-a]pyrazin-6-yl)-2-methoxybenzamide 2,2,2-trifluoroacetate] came in with an IC50 of 0.015 µM.

In turn, `COc1ccccc1C(=O)Nc1cn2cc(C34CCC(C)(C3)OC4)nc2c(OC)n1` (centres unmarked) [Example 465, 2-methoxy-N-(8-methoxy-2-(1-methyl-2-oxabicyclo[2.2.1]heptan-4-yl)imidazo[1,2-a]pyrazin-6-yl)benzamide 2,2,2-trifluoroacetate] returned an IC50 of 0.037 µM.

`Cc1cccc(C(=O)Nc2cn3cc(C4CCOCC4)nc3cc2C(F)F)n1` [Example 315, N-(7-(difluoromethyl)-2-(tetrahydro-2H-pyran-4-yl)imidazo[1,2-a]pyridin-6-yl)-6-methylpicolinamide] came in with a 50% inhibitory concentration (IC50) of 0.021 µM.

Consider `Cc1nc(NC(=O)c2cccc(C(F)F)n2)cn2cc(C3CCOCC3)nc12` [Example 296, 6-(difluoromethyl)-N-(8-methyl-2-(tetrahydro-2H-pyran-4-yl)imidazo[1,2-a]pyrazin-6-yl)picolinamide], for which the midpoint of inhibition, the IC50, lay at 0.089 µM.

`CC(C)Oc1nc(NC(=O)c2cnn3cccc(F)c23)cn2cc(C34COC(C)(C3)C4)nc12` [Example 482, 4-fluoro-N-(8-isopropoxy-2-(1-methyl-2-oxabicyclo[2.1.1]hexan-4-yl)imidazo[1,2-a]pyrazin-6-yl)pyrazolo[1,5-a]pyridine-3-carboxamide] had an IC50 of 0.015 µM.

Broadly, the IC50 is the concentration that inhibits the measured activity by half. A low value points to inhibition by little substance.
